Experimental data as given in ChEMBL document CHEMBL1201862, “PubChem BioAssay data set” (2004).
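Where inhibition never reached the appropriate level, the endpoint shown equals the highest concentration tested. Otherwise, values were interpolated linearly from a five-concentration, 48-hour dose response in 96-well plates. Here, GI50 denotes the concentration required for 50% inhibition of growth.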 Activity calls are given as the source filed them. Cut-off read from the data, not from the text of the source: active = GI50 up to about 1.1 µM and inactive = higher.

What was measured:
Assay in all cases: growth of human tumour cells (NCI), 48 h
M14 = tested on: M14
A549 = tested on: A549
SN12C = tested on: SN12C
HCT-15 = tested on: HCT-15
SNB-19 = tested on: SNB-19
SF-539 = tested on: SF-539
SNB-75 = tested on: SNB-75
IGROV-1 = tested on: IGROV-1
UACC-62 = tested on: UACC-62
UO-31 = tested on: UO-31
RPMI-8226 = tested on: RPMI-8226
SK-OV-3 = tested on: SK-OV-3
OVCAR-5 = tested on: OVCAR-5
NCI-H460 = tested on: NCI-H460
NCI-H522 = tested on: NCI-H522
HOP-62 = tested on: HOP-62
CAKI-1 = tested on: CAKI-1
NCI-H226 = tested on: NCI-H226

Row | Structure (SMILES) | GI50 (M14) | GI50 (A549) | GI50 (SN12C) | GI50 (HCT-15) [µM] | GI50 (SNB-19) | GI50 (SF-539) | GI50 (SNB-75) | GI50 (IGROV-1) | GI50 (UACC-62) | GI50 (UO-31) | GI50 (RPMI-8226) | GI50 (SK-OV-3) | GI50 (OVCAR-5) | GI50 (NCI-H460) | GI50 (NCI-H522) | GI50 (HOP-62) | GI50 (CAKI-1) | GI50 (NCI-H226)
1 | CS/C(c1ccccc1)=[N+](/C)[O-] | > 100 µM (inactive) | > 100 µM (inactive) | > 100 µM (inactive) | 18.1 | > 100 µM (inactive) | > 100 µM (inactive) | > 64.6 µM (inactive) | > 100 µM (inactive) | > 100 µM (inactive) | > 100 µM (inactive) | > 56.2 µM (inactive) | > 100 µM (inactive) | > 100 µM (inactive) | > 52.2 µM (inactive) | > 100 µM (inactive) | > 100 µM (inactive) | > 100 µM (inactive) | –
2 | CCCCCCCC(=O)OCC(C[As](=O)(O)O)OC(=O)CCCCCCC (configuration not stated) | 15 µM (inactive) | 23 µM (inactive) | 14.7 µM (inactive) | 14.9 | 14.8 µM (inactive) | 14.1 µM (inactive) | 15.7 µM (inactive) | 13.8 µM (inactive) | 13.8 µM (inactive) | 15 µM (inactive) | 17.6 µM (inactive) | 15.7 µM (inactive) | – | – | 13.3 µM (inactive) | 20.3 µM (inactive) | – | 22.3 µM (inactive)
3 | C[C@H]1CC[P+](C)(c2ccccc2)C1 (some centres not stated) | > 100 µM (inactive) | > 100 µM (inactive) | > 100 µM (inactive) | > 100 | > 100 µM (inactive) | > 100 µM (inactive) | > 100 µM (inactive) | > 100 µM (inactive) | > 100 µM (inactive) | > 100 µM (inactive) | > 100 µM (inactive) | > 100 µM (inactive) | > 100 µM (inactive) | > 100 µM (inactive) | > 100 µM (inactive) | > 100 µM (inactive) | – | > 100 µM (inactive)
4 | Cc1cc2c(cc1C)[n+]([O-])c(C(=O)C/C(=N/NC(=O)c1ccccc1O)C(=O)Nc1ccccc1C(C)C)c(C)[n+]2[O-] | > 100 µM (inactive) | > 100 µM (inactive) | > 100 µM (inactive) | > 100 | > 100 µM (inactive) | > 100 µM (inactive) | 88.5 µM (inactive) | > 100 µM (inactive) | 68.1 µM (inactive) | – | – | > 100 µM (inactive) | > 100 µM (inactive) | 61.8 µM (inactive) | 42.6 µM (inactive) | > 100 µM (inactive) | > 100 µM (inactive) | > 100 µM (inactive)
5 | O=C(Nc1c(Cl)cc([N+](=O)[O-])cc1Cl)C(=O)C(C1OC(=O)c2ccccc21)[N+](=O)[O-] (configuration not stated) | > 100 µM (inactive) | > 100 µM (inactive) | > 100 µM (inactive) | > 100 | > 100 µM (inactive) | > 100 µM (inactive) | > 100 µM (inactive) | > 100 µM (inactive) | > 100 µM (inactive) | 23.5 µM (inactive) | 89.9 µM (inactive) | > 100 µM (inactive) | > 100 µM (inactive) | > 100 µM (inactive) | – | 81.8 µM (inactive) | > 100 µM (inactive) | > 100 µM (inactive)
6 | CCc1nc2c([nH]1)C(=O)c1ccccc1C2=O | 46.9 µM (inactive) | 52.8 µM (inactive) | 37.2 µM (inactive) | 51.3 | 46.2 µM (inactive) | 48.9 µM (inactive) | > 100 µM (inactive) | – | 29.9 µM (inactive) | 80.9 µM (inactive) | – | > 100 µM (inactive) | > 100 µM (inactive) | 43 µM (inactive) | 33.5 µM (inactive) | > 100 µM (inactive) | 47.8 µM (inactive) | 34 µM (inactive)
7 | O=S1OC(c2ccccc2)(c2ccccc2)C(c2ccccc2)(c2ccccc2)O1 | > 100 µM (inactive) | 40 µM (inactive) | > 100 µM (inactive) | > 30.3 | > 100 µM (inactive) | > 100 µM (inactive) | > 56.4 µM (inactive) | > 100 µM (inactive) | > 100 µM (inactive) | > 29.7 µM (inactive) | 5.15 µM (inactive) | > 100 µM (inactive) | > 100 µM (inactive) | > 30.1 µM (inactive) | > 50.1 µM (inactive) | > 100 µM (inactive) | – | > 100 µM (inactive)
8 | CCOC(=O)N1C2C=C(C)C(C3C(C)C(=O)N31)N(C(=O)c1ccccc1)O2 (configuration not stated) | > 100 µM (inactive) | > 100 µM (inactive) | > 100 µM (inactive) | > 100 | > 100 µM (inactive) | > 100 µM (inactive) | > 100 µM (inactive) | > 100 µM (inactive) | > 100 µM (inactive) | > 100 µM (inactive) | > 100 µM (inactive) | > 100 µM (inactive) | > 100 µM (inactive) | > 100 µM (inactive) | – | > 100 µM (inactive) | > 100 µM (inactive) | > 100 µM (inactive)
